The numbers were not newly measured in patent US20050267091A1 (priority 2004, published 2005), which cites them from elsewhere.

Each structure is given as a SMILES string.

The conditions of data set [1]: in vivo.
Test in data set [2]: not given
This is another data set of the same source.

As for `COCc1c(C(C)C)nc(C(C)C)c(/C=C/[C@@H](O)C[C@@H](O)CC(=O)O)c1-c1ccc(F)cc1` [Baycol®, cervastatin], the “deaths linked to the drug” value (market withdrawal August 2001) is listed as 31 deaths.
`CC(C)c1nc(N(C)S(C)(=O)=O)nc(-c2ccc(F)cc2)c1/C=C/[C@@H](O)C[C@@H](O)CC(=O)O` [Crestor®, rosuvastatin]: the “cases of serious side effects” value (cited by consumer advocacy group, March 2004) is 16 cases.
For `O=C(O)c1cccnc1` [Niacin], in data set [1], the “increase of blood levels of HDL cholesterol” value is “up to 35%”, the “reduction of total cholesterol” value was “up to 15%” and the “reduction of triglyceride levels” value is “up to 30%”. Also, the “patients affected by flushing (redness) of the face and neck” value in data set [2] (most common side effect) is reported as “more than three quarters of patients”. For the same molecule, in data set [2] (patients treated with standard niacin), the “patients who discontinue because of adverse effects” value was “more than 40%”.
